We go through 34 molecules from patent US5773423A (priority 1994, dated 1998).

Series [1] concerns the target T1, A2 receptors from rat striatal membranes (Rattus norvegicus, UniProt P30543).
T1 construct: Rat cerebral cortical and striatal membranes were prepared; from tissue; host or cells: rat striatal membranes
Nature of the series: Radioligand binding at A2 (A2a) receptors, displacement of [3H]CGS 21680 (or [3H]NECA with 50 nM CPA) from rat striatal membranes. The note with it: for Ki: rat striatal membranes, displacement of [3H]CGS 21680 (or [3H]NECA + 50 nM CPA), read-out: A2 affinity Ki; for inhibition at 100 µM: read-out: A2 percent displacement.

In series [2] the target is T2, A1 receptors from rat brain membranes (Rattus norvegicus, UniProt P25099).
T2 construct: Rat cerebral cortical and striatal membranes were prepared; from tissue; host or cells: rat brain (cerebral cortical) membranes
T2 sequence (P25099 1-326): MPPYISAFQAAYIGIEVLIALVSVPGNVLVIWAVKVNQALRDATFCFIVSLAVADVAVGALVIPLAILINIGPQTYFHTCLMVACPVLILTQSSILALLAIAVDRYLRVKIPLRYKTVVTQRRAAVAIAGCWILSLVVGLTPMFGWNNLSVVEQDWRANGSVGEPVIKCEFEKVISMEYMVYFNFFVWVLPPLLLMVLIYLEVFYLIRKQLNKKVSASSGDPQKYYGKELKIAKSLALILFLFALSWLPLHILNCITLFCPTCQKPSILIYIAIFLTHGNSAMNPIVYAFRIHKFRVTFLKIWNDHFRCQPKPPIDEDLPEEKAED

In series [3] the target is T1, A2 receptors from rat striatal membranes.
The test system of series [4] is NMDA-evoked seizures in mice. In kind it is in vivo.
The subject of series [5] is locomotor activity in mice. Put plainly: Locomotor activity in mice (open field, Digiscan activity monitor). The class given is in vivo, mouse (NIH Swiss).
For series [6], the system named is cardiovascular parameters in rats. The class given is in vivo, rat.
Protocol: Rats (each weighing 300-340 g) were lightly anesthetized using 1.5-2% halothane. They were monitored for heart rate with a tail sensor and blood pressure using the tail cuff method. Peripheral blood flow (scalp) was monitored using a Perimed laser Doppler blood flow apparatus, with a narrow diameter probe placed in contact with the shaved skin above the center of the cranium. A small amount of clear gel was applied to maintain uniform transmission of light. Body temperature was measured using a rectal probe. Respiratory rate was also recorded. Measurements were made at regular intervals: every 2 min for the first ten min period, and every five min thereafter, until 30 min, at which time a 30 min interval was used, until 90 min. […] Drugs were dissolved in a vehicle consisting of an 80:20 mixture of Alkamuls EL-620 and saline, pH 7.4. […] When administered alone, the agonist was given at the beginning of the monitoring period. When coadministered with an antagonist, the antagonist was given at the beginning of the monitoring period, and the agonist was given after 10 min.
For series [7], the system named is pentamethylenetetrazole-induced convulsions in mice. In kind it is in vivo. The note with it: PMT 75 mg/kg alone.
In series [8] the target is T2, A1 receptors from rat brain membranes. Nature of the series: biochemical. Particulars: for inhibition at 100 µM: read-out: A1 percent displacement. The class given is binding.
The mark [9] stands for this setting: values without SEM, taken from the literature; read-out: A1 affinity Ki; cited from earlier work.
Where [10] appears, read: read-out: A1 affinity Ki; values without SEM, taken from the literature; cited from earlier work.
The mark [11] stands for this setting: values without SEM, taken from the literature; read-out: A2 affinity Ki; cited from earlier work.
The mark [12] stands for this setting: 4 mg/kg alone, 10-30 min post-injection.
[13] abbreviates: rat brain membranes, displacement of [3H]PIA (or [3H]CHA), read-out: A1 affinity Ki.

Where a name gives a salt, the structure may show the parent alone. Read-outs that look alike come from different tables or passages of the source.

T1 sequence (P30543 whole entry): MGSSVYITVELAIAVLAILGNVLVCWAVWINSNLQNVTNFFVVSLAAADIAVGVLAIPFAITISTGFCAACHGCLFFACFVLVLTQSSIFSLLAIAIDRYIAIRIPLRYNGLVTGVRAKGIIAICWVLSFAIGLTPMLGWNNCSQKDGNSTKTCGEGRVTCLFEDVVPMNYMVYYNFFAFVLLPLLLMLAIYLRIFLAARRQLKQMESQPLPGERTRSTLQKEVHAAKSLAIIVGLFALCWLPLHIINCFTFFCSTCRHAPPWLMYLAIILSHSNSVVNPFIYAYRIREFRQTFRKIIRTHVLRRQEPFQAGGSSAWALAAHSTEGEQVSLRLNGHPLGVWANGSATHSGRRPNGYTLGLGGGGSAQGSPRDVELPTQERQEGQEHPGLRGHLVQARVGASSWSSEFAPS

In general, Ki refers to a dissociation constant, usually derived from enzyme kinetics or from competition with a known ligand. Take `CN(C)c1ncnc2c1ncn2[C@@H]1O[C@H](CO)[C@@H](O)[C@H]1O` [Compound 9, N^6 -dimethyladenosine, reference compound]: the values for the Ki in series [1] and in series [2] (setting [9]) were 28900 nM and 10000 nM, respectively.
Regarding `COc1cc(OC)cc(C(CNc2ncnc3c2ncn3[C@@H]2O[C@H](CO)[C@@H](O)[C@H]2O)c2ccccc2C)c1` (some centres unmarked) [Compound 10, N^6-[2-(3,5-dimethoxyphenyl)-2-(2-methylphenyl)ethyl]adenosine], the Ki in series [3] (read-out: A2 affinity Ki; cited from earlier work) is 4.4 nM.
In the case of `CN[C@H](CC(=O)O)C(=O)O` [NMDA, N-methyl-D-aspartate, reference compound], in series [4] (NMDA 60 mg/kg alone), the “% Mortality at 24 h” value was determined as 60% and the “Ave. Latency to Seizures” value was 244 + 90 sec. In addition, in series [4] (NMDA 60 mg/kg alone (control), within 15 min), the “% Convulsing” value came to 80%. The “Impairment (neurological impairment scale 1-6)” value in series [4] (NMDA 60 mg/kg alone, 1 no change ... 6 clonic/tonic complexes) turned out to be 3.5 ± 0.5.
Take `N=C(N)NC(=O)c1nc(Cl)c(N)nc1N` [Compound 97, amiloride]: the Ki in series [3] (read-out: A2 affinity Ki; values without SEM, taken from the literature; cited from earlier work) is 17000 nM; in series [2] (setting [10]), 11000 nM.
As to `CCCn1c(=O)c2[nH]c(-c3ccc(S(=O)(=O)O)cc3)nc2n(CCC)c1=O` [Compound 135, 8-sulfophenyl-1,3-dipropylX], the Ki was 790 nM in series [3] (setting [11]) and 140 nM in series [2] (setting [9]).
For the molecule `CN1CCC(=C2c3ccccc3C=Cc3ccccc32)CC1` [cyproheptadine, reference compound], the “effect on 3-IB-MECA-induced scratching (in words)” value is listed as “only partial” in series [5] (1 mg/kg) and “eliminated this behavior” in series [5] (10 mg/kg i.p.).
With `CC(C)Cn1c(=O)n(C)c(=O)c2[nH]cnc21` [Compound 108, 3-isobutyl-1-methylxanthine], the Ki in series [3] (setting [11]) was 16000 nM.
As for `O=c1[nH]c(=O)c2[nH]cnc2[nH]1` [Compound 98, xanthine, reference compound], the inhibition at 100 µM in series [1] was 16.2 ± 2.6%. The inhibitory constant (Ki) in series [2] (setting [9]) is 298000 nM.
Turning to `CCCn1c(=O)c2[nH]c(-c3ccc(C=CC(=O)O)cc3)nc2n(CCC)c1=O` [BW1433, 1,3-dipropyl-8-(4-carboxyvinylphenyl)xanthine, reference compound], the “blood flow and respiratory rates (in words)” value in series [6] (4 mg/kg alone) was “Blood flow and respiratory rates were increased”. For the same molecule, in series [6] (setting [12]), the “rise in blood pressure” value is > 40 % of initial values and the “rise in heart rate” value was > 40 % of initial values. Further, in series [6] (rat, in vivo, 4 mg/kg), the “body temperature (in words)” value is on record as “no major changes”.
In series [1] (striatal membranes, 100 µM), `Nc1ncnc2c1ccn2[C@@H]1O[C@H](CO)[C@@H](O)[C@H]1O` [Compound 33, 7-deazaadenosine, reference compound] registered an A2 percent displacement of 48.3 ± 0.4%. Also, the Ki in series [2] (setting [10]) was more than 100 nM.
`Cn1c(=O)[nH]c2nc[nH]c2c1=O` [Compound 99, 1-methylX]: the Ki is 36200 nM in series [3] (setting [11]) and 11400 nM in series [2] (setting [9]).
As for `O=S(=O)(O)CCNc1ncnc2c1ncn2[C@@H]1O[C@H](CO)[C@@H](O)[C@H]1O` [Compound 11, N^6-(2-sulfo)ethyladenosine], the A1 percent displacement in series [2] (at 100 μM, value without SEM, from the literature; cited from earlier work) is listed as 41%.
Turning to `Cn1cnc2c1c(=O)[nH]c(=O)n2C` [Compound 106, 3,7-dimethylX], the Ki in series [3] (setting [11]) is 187000 nM; in series [2] (setting [9]) it was 83400 nM.
On to `Cn1c(=O)[nH]c2ncn(C)c2c1=O` [Compound 104, 1,7-dimethylX, reference compound], for which the figures for the Ki in series [1] and in series [2] (setting [9]) were 19400 nM and 30000 nM, respectively.
As to `C1CCc2nnnn2CC1` [PMT, pentamethylenetetrazole, reference compound], in series [7], the “Mortality 0.4-5 h” value amounted to 0%, the “Mortality <15 min” value turned out to be 100%, the “Mortality >5 h” value is recorded as 0% and the “Mortality Overall” value stood at 100%. Further, the “Onset of convulsive behavior” value in series [7] is 74 s.
Turning to `Nc1[nH]c2ccccc2c2ncnc1-2` [Compound 94, imidazo[4,5-c]quinolin-4-amine], in series [3] (setting [11]), the Ki was 1400 nM.
As to `CCNC(=O)[C@H]1O[C@@H](n2cnc3c(N(C)C)ncnc32)[C@H](O)[C@@H]1O` [Compound 29, N^6 -dimethylNECA, reference compound], the results for the inhibitory constant (Ki) in series [1] and in series [2] (setting [9]) were 13500 nM and 9600 nM, respectively.
As for `NC(=O)[C@H]1O[C@@H](n2cnc3c(N)ncnc32)[C@H](O)[C@@H]1O` [Compound 20, 5'-carboxamidoadenosine], the Ki in series [3] (setting [11]) was 120 nM; in series [2] (setting [9]) it was 72.6 nM.
With `OC[C@H]1O[C@@H](n2cnc3c(NC4CCCC4)cc(Cl)nc32)[C@H](O)[C@@H]1O` [Compound 15, 1-deaza-2-chloro-N^6-cyclopentyladenosine], in series [3] (setting [11]), the Ki was 13200 nM.
`CNC(=O)[C@H]1O[C@@H](n2cnc3c(NCc4cccc(C)c4)ncnc32)[C@H](O)[C@@H]1O` [Compound 46, N^6-(3-methylbenzyl)-NMCA]: the Ki is 415 ± 33 nM in series [1] and 322 ± 23 nM in series [8] (setting [13]).
On the same counts, the results for `CNC(=O)[C@H]1O[C@@H](n2cnc3c(NCc4ccc(N)cc4)ncnc32)[C@H](O)[C@@H]1O` [Compound 50, N^6-(4-aminobenzyl)-NMCA] are 1590 nM and 431 ± 45 nM.
On the same counts, the results for `CCNC(=O)[C@H]1O[C@@H](n2cnc3c(NCc4cccc(F)c4)ncnc32)[C@H](O)[C@@H]1O` [Compound 57, N^6-(3-fluorobenzyl)adenosine-5'-N-ethyluronamide] are 32 ± 4 nM and 51 ± 7 nM.
Turning to `Nc1ncnc2c1ncn2[C@@H]1O[C@H](COP(=O)(O)O)[C@@H](O)[C@H]1O` [Compound 78, adenosine-5'-monophosphate, reference compound], the inhibition at 100 µM in series [1] came to 57.5 ± 4%. This molecule returned an inhibition constant Ki in series [8] of 47500 ± 6500 nM.
For `Nc1nc2c(ncn2[C@@H]2O[C@H](CO)[C@@H](O)[C@H]2O)c(=S)[nH]1` [Compound 88, 6-thioguanosine, reference compound], the inhibition at 100 µM in series [1] (at 100 μM) is 27.7 ± 5.8%; in series [8] it was 44.2 ± 2.3%.
On to `CCNC(=O)[C@H]1O[C@@H](n2cnc3c(N[C@H](C)c4ccccc4)ncnc32)[C@H](O)[C@@H]1O` [Compound 55, N^6 -(R-phenylethyl)-NECA], for which the figures for the Ki in series [1] and in series [8] (setting [13]) were 259 ± 15 nM and 3.2 ± 0.1 nM, respectively.
The like results for `Nc1nc2c(ncn2[C@@H]2O[C@H](CO)[C@@H](O)[C@H]2O)c(=O)[nH]1` [Compound 86, guanosine, reference compound] were, in that order, 8500 nM and 27800 nM.
With `CCNC(=O)[C@H]1O[C@@H](n2cnc3c(NC4CCCCC4)ncnc32)[C@H](O)[C@@H]1O` [Compound 27, N^6 -cyclohexylNECA], the Ki in series [3] (setting [11]) is 170 nM; in series [2] (read-out: A1 affinity Ki; cited from earlier work), 0.43 nM.
In the case of `CC(C)CSC[C@H]1O[C@@H](n2cnc3c(N)ncnc32)[C@H](O)[C@@H]1O` [Compound 76, 5'-deoxy-5'-isobutylthio adenosine, reference compound], the Ki amounted to 6890 nM in series [1] and 1140 nM in series [8] (setting [13]).
As to `CCCCn1c(=O)c2c(ncn2[C@@H]2O[C@H](C(=O)NCC)[C@@H](O)[C@H]2O)n(CCCC)c1=O` [Compound 126, N-ethyl 1,3-di-n-butylxanthine-7-β-D-ribofuronamide], the Ki in series [1] was found to be 17000 nM; in series [8] (setting [13]), 7500 nM.
In the case of `CCCCn1c(=O)c2c(ncn2[C@@H]2O[C@H](C(N)=O)[C@@H](O)[C@H]2O)n(CCCC)c1=O` [Compound 123, 1,3-di-n-butylxanthine-7-β-D-ribofuronamide], the Ki stood at 59200 nM in series [1] and 2940 nM in series [8] (setting [13]).
The like results for `CNC(=O)[C@H]1O[C@@H](n2cnc3c(NCc4cccc(S(=O)(=O)O)c4)ncnc32)[C@H](O)[C@@H]1O` [Compound 52, N^6-(3-sulfobenzyl)-NMCA triethylammonium salt] were, in that order, more than 10000 nM and more than 10000 nM.
The like results for `CCNC(=O)[C@H]1O[C@@H](n2cnc3c(NCc4ccc(OC)cc4)ncnc32)[C@H](O)[C@@H]1O` [Compound 67, N^6-(4-methoxybenzyl)adenosine-5'-N-ethyluronamide] were, in that order, 609 ± 34 nM and 209 ± 30 nM.
In the case of `CCNC(=O)[C@H]1O[C@@H](n2cnc3c(NCc4ccccc4)ncnc32)[C@H](O)[C@@H]1O` [Compound 28, N^6-benzyladenosine-5'-N-ethyluronamide], the Ki in series [1] was 95.3 ± 24.6 nM; in series [3] (setting [11]), 95 nM; in series [8] (setting [13]), 87.3 ± 13.9 nM.
For `Cc1cn([C@H]2C[C@H](O)[C@@H](CO)O2)c(=O)[nH]c1=O` [Compound 83, thymidine, reference compound], the inhibition at 100 µM was determined as 1.7 ± 3.4% in series [1] and 23.4 ± 2.5% in series [8].
